Test results as given in ChEMBL document CHEMBL4118284, “Exploration of diphenylalkyloxadiazoles as novel cardiac myosin activator” (Bioorg Med Chem Lett, 2018).

Tests used:
Bos taurus [1] = species: Bos taurus; test: Activation of actin-stimulated bovine cardiac myosin S1 fragment ATPase activity in sarcomere at 10 uM after 10 mins by spectrophotometric analysis relative to control
Bos taurus [2] = species: Bos taurus; test: Activation of actin-stimulated bovine cardiac myosin S1 fragment ATPase activity in sarcomere at 5 uM after 10 mins by spectrophotometric analysis relative to control
Bos taurus [3] = species: Bos taurus; test: Activation of actin-stimulated bovine cardiac myosin S1 fragment ATPase activity in sarcomere at 1 uM after 10 mins by spectrophotometric analysis relative to control
[4] = Activation of actin-stimulated bovine cardiac myosin S1 fragment ATPase activity in sarcomere after 10 mins by spectrophotometric analysis; parameters: species or system Bos taurus
Oryctolagus cuniculus = species: Oryctolagus cuniculus; test: Activation of actin-stimulated rabbit psoas skeletal muscle myosin S1 fragment ATPase activity at 100 uM after 10 mins by spectrophotometric analysis relative to control
Gallus gallus = species: Gallus gallus; test: Activation of actin-stimulated chicken gizzard smooth muscle myosin S1 fragment ATPase activity at 100 uM after 10 mins by spectrophotometric analysis relative to control

Row | Compound | Activity (Bos taurus [1]) | Activity (Bos taurus [2]) | Activity (Bos taurus [3]) | EC50 [4] | Activity (Oryctolagus cuniculus) | Activity (Gallus gallus)
1 | COc1ccc(Cc2nnc(CCCc3ccccc3)o2)cc1OC | 16.1% |  |  |  |  | 
2 | CN(C)S(=O)(=O)c1ccc(CCCc2nnc(-c3ccccc3)o2)cc1 | 11.9% |  |  |  |  | 
3 | c1ccc(CCCc2nc(-c3ccccc3)no2)cc1 | 60.7% | 56.4% | 31.9% | 3.18 µM | -5.3% | -2.4%
4 | c1ccc(CCCCNc2nnc(-c3ccccc3)o2)cc1 | 32.8% |  |  |  |  | 
5 | CN(C)S(=O)(=O)c1ccc(CCCc2nc(-c3ccccc3)no2)cc1 | 37.2% |  |  |  |  | 
6 | COc1ccc(-c2nnc(CCCc3ccccc3)o2)cc1 | 37.3% |  |  |  |  | 
7 | c1ccc(CCCNc2nnc(-c3ccccc3)o2)cc1 | 50.5% | 42.6% | 28.4% | 5.25 µM | 1.9% | 2.3%
8 | c1ccc(CCCc2nnc(CCC3CCCCC3)o2)cc1 | 58.9% | 53.1% | 30% | 3.48 µM | -2.7% | 4.5%
9 | c1ccc(CCNc2nnc(-c3ccccc3)o2)cc1 | 35.2% |  |  |  |  | 
10 | COc1ccc(Cc2noc(CCCc3ccccc3)n2)cc1OC | 18.4% |  |  |  |  | 
11 | c1ccc(CCCc2nnc(-c3ccncc3)o2)cc1 | 15.9% |  |  |  |  | 
12 | COc1ccc(-c2nnc(NCCCc3ccccc3)o2)cc1OC | 41.7% |  |  |  |  | 
13 | c1ccc(CCCCc2nnc(-c3ccncc3)o2)cc1 | 8.6% |  |  |  |  | 
14 | COc1ccc(-c2noc(CCCc3ccccc3)n2)cc1OC | 46.8% |  |  |  |  | 
15 | c1ccc(CCCc2nnc(CCc3ccccc3)o2)cc1 | 51% | 45.3% | 29.7% | 4.5 µM | -3.1% | 4.1%
16 | COC(=O)N1CCN(Cc2cccc(NC(=O)Nc3ccc(C)nc3)c2F)CC1 [OMECAMTIV MECARBIL] | 56.5% | 49.9% | 31.2% | 3.35 µM | 2.2% | -3.8%

Row | Compound | Activity (Bos taurus [1]) | Activity (Bos taurus [2]) | Activity (Bos taurus [3]) | EC50 [4] | Activity (Oryctolagus cuniculus) | Activity (Gallus gallus)
17 | c1ccc(CCCc2nc(Cc3ccccc3)no2)cc1 | 66.3% | 60.3% | 34.1% | 3.02 µM | 3.3% | 4.2%
18 | c1ccc(CCCc2nnc(-c3ccccc3)o2)cc1 | 59.2% | 55.2% | 32.5% | 3.27 µM | -2.5% | -3.7%
19 | COc1ccc(-c2nnc(CCCc3ccccc3)o2)cc1OC | 40.2% |  |  |  |  | 
20 | Fc1ccc(Cc2nnc(CCCc3ccccc3)o2)cc1 | 4.2% |  |  |  |  | 
21 | c1ccc(CCCc2nnc(C3CCOCC3)o2)cc1 | 30.8% |  |  |  |  | 
22 | c1ccc(CCCNc2nnc(-c3ccncc3)o2)cc1 | 22.9% |  |  |  |  | 
23 | NS(=O)(=O)c1ccc(-c2nnc(NCCCc3ccccc3)o2)cc1 | 33% |  |  |  |  | 
24 | c1ccc(CCCc2nnc(CCCc3ccccc3)o2)cc1 | 2.5% |  |  |  |  | 
25 | NS(=O)(=O)c1ccc(-c2nnc(CCCc3ccccc3)o2)cc1 | 22.5% |  |  |  |  | 
26 | Cc1ccc2c(c1)C(=O)[C@]1(O)CCN(c3ccccc3)C1=N2 |  |  |  |  | -54.1% | -37.3%
27 | c1ccc(CCCc2nnc(Cc3ccccc3)o2)cc1 | 62.9% | 60.2% | 33.5% | 3.06 µM | 1.8% | -3.9%
28 | c1ccc(CCCCc2nnc(C3CCOCC3)o2)cc1 | 11.2% |  |  |  |  | 
29 | COc1ccc(CCc2nnc(CCCc3ccccc3)o2)cc1OC | 38.7% |  |  |  |  | 
30 | c1ccc(CCCCc2nc(-c3ccccc3)no2)cc1 | 35.9% |  |  |  |  | 
31 | CN(C)S(=O)(=O)c1ccc(CCc2nnc(CCCc3ccccc3)o2)cc1 | 33.6% |  |  |  |  | 
